Legend:
[1] = tested on: metastatic tumor tissue (tumor cells and immune cells) of a patient with ovarian cancer in PVDF capsule tubes; assay: IO-FIVE capsule test in nude mice, ovarian cancer patient of Example 3 (CTG cell viability and FACS, day 10); format: in vivo, human; settings: tumor sample after addition of autologous TIL cells (C/T 8)
Description: Experimental Animals, Sample Collection, and Cell Processing were the Same as in Example 1.
The following was collected for cell phenotyping identification: a single cell suspension of patient tumor tissue samples before purification, tumor cells after purification, enriched immune cells (containing CD3+ T cells) eluted from the column, and a cell suspension in which tumor cells after purification and immune cells were mixed in a certain ratio (1.5:1 to 15:1), to yield a final cell count of 0.1 to 0.3 million cells. […]
Cells within the Tubing The basic operational steps were the same as those in Example 1. According to the data analyzed by flow cytometry, the CD45− tumor cells and CD3+ T cells were mixed in a certain ratio (about 1.5:1-15:1). […]
3-21 days after administration (day 10 here), the mice were euthanized, and the PVDF tubes were removed. Cell viability was quantified by the CellTiter-Glo chemiluminescence method, and the relative ratio and basic phenotype of tumor cells and immune cells in PVDF tubes were detected by flow cytometry.
Adjusted to the viability value of the cells in the control vehicle group (as shown in FIG. 9), the proliferation viability of all cells in the drug administration group was calculated, and then the efficacy of the drug to be tested was calculated. […]

[2] = tested on: patient with ovarian cancer; settings: monotherapy
[3] = tested on: peripheral blood tumor cells and immune cells of acute myeloid leukemia (AML) patients in PVDF capsule tubes; assay: IO-FIVE capsule test in nude mice, two AML patients #123 and #124 of Example 5 (CTG cell viability and FACS, day 14); format: in vivo, human
Procedure: BALB/c Nude mice (available from Jiangsu Jicui Yaokang Biotechnology Co. Ltd.) aged 6-8 weeks were ordered from the supplier and kept in the animal house at SPF level. The animals were adaptively kept for at least 3 days before the start of the experiment.
Fresh peripheral blood samples from two acute myeloid leukemia (AML) patients (in the acute phase of AML) were collected and placed in anticoagulant tubes and transported to the central laboratory by cold chain (2-8° C.) within a short period of time.
The peripheral blood samples of different patients were transferred into the biological safety cabinet. The cells were centrifuged using a gradient centrifugation gel (available from SIGMA) with a density of 1.077 g/mL at room temperature. […] After resuspension in cell culture medium (available from Gibco), the cells were counted. […]
3-21 days after administration (e.g., day 14 here), the mice were euthanized, and the PVDF tubes were removed. Cell viability was quantified by the CellTiter-Glo chemiluminescence method. Changes in the relative ratio and phenotype of tumor cells and immune cells in PVDF tubes were detected by flow cytometry. Bioinformatic changes of tumor cells and immune cells in PVDF capsule tubes of clinical samples at day 0 or day 10 were detected by molecular biological methods (RNA sequencing, and DNA sequencing technology, etc.). […]

[4] = tested on: peripheral blood and/or bone marrow tumor cells and immune cells of acute myeloid leukemia (AML) patients in PVDF capsule tubes; assay: IO-FIVE capsule test in nude mice, three AML patients #128, #129, #131 of Example 6 (CTG cell viability and FACS, day 14); format: in vivo, human
Procedure: Fresh peripheral blood samples and/or bone marrow from three acute myeloid leukemia (AML) patients (in the acute phase) were collected and placed in anticoagulant tubes, and transported to the central laboratory by cold chain (2-8° C.) within a short period of time.
Quality control analysis was performed according to the data obtained by flow cytometry so as to meet the requirement that the ratio of CD8+ T cells was at least more than 0.5% (the required minimum concentration), and the tumor cells (CD45^low/+ SSC-A^mid/hi CD33+/CD38+ cells) and the CD45^high SSC-A^lowCD3+ T lymphocytes were uniformly mixed according to a certain ratio (C/T (CD38+Cancer/CD3+T)=1.5:1 to 15:1), and then filled into PVDF tubes and sealed.
Cell viability as measured by luminescence (CTG method) on day 14: according to the viability value of the cells in the control group (as shown in FIG. 21), the proliferation viability of all the cells in the drug administration group was calculated, and then the efficacy of the drug was calculated.
Flow cytometry detection on day14: the relative ratio of tumor cells and immune cells in PVDF tubes was detected by flow cytometry. The differences between tumor cells and immune cells in the drug group and the control group were compared (as shown in FIG. 22). The results were analyzed by Flowjo software.

| Compound | viability of total cells / overall tumor viability (CTG) [1] | clinical response of the patient [2] | response (cell viability by CTG, FACS) ([3]; patient #123, C/T about 15:1, CD8+ T 0.21%) | response / inhibitory effect on cell viability (CTG) compared with control vehicle ([3]; patient #124, C/T about 6:1) | proportion of cancer blasts in the capsules (FACS) ([4]; patient #128) | proportion of cancer blasts in the capsules (FACS) ([4]; patient #129) | AML blasts and CD8+ TILs (FACS) ([4]; patient #131) | response (cell viability, CTG) ([4]; patient #131, C/T 4.5) |
| --- | --- | --- | --- | --- | --- | --- | --- | --- |
| NC(=O)c1cccc2cn(-c3ccc([C@@H]4CCCNC4)cc3)nc12 [PARP inhibitor, Niraparib] | neither PD1 antibody nor PARP inhibitor mono-therapy could inhibit the overall tumor viability | poor clinical response | – | – | – | – | – | – |
| Daratumumab [CD38 antibody] | – | – | did not respond | great response | cancer blasts still occupied a dominant proportion in the capsules | cancer blasts still occupied a dominant proportion in the capsules | less AML blasts and more CD8+ TILs | positive response |

— patent US20240076380A1, “DEVICE AND METHODS FOR RAPIDLY SCREENING AND TREATING CLINICAL CANCER PATIENTS WITH IMMUNOREGULATORY DRUGS” (Shanghai Lide Biotech Co., Ltd., priority 2022, published 2024)
